Laboratory results reported in patent US11713338B2, “Cyclic peptides multimers targeting α-4-β-7 integrin” (priority 2016, dated 2023).

Key:
[1] = target: T1, recombinant integrin α4β7 (Homo sapiens, UniProt P13612+P26010, DEL724-798); test: Integrin α4β7—MAdCAM-1 ELISA competition assay; format: binding; conditions: read-out: ELISA α4β7 Assay IC50
T1 construct: purchased R&D Systems 5397-A3-050
T1 sequence (P13612 34-970 limits assumed): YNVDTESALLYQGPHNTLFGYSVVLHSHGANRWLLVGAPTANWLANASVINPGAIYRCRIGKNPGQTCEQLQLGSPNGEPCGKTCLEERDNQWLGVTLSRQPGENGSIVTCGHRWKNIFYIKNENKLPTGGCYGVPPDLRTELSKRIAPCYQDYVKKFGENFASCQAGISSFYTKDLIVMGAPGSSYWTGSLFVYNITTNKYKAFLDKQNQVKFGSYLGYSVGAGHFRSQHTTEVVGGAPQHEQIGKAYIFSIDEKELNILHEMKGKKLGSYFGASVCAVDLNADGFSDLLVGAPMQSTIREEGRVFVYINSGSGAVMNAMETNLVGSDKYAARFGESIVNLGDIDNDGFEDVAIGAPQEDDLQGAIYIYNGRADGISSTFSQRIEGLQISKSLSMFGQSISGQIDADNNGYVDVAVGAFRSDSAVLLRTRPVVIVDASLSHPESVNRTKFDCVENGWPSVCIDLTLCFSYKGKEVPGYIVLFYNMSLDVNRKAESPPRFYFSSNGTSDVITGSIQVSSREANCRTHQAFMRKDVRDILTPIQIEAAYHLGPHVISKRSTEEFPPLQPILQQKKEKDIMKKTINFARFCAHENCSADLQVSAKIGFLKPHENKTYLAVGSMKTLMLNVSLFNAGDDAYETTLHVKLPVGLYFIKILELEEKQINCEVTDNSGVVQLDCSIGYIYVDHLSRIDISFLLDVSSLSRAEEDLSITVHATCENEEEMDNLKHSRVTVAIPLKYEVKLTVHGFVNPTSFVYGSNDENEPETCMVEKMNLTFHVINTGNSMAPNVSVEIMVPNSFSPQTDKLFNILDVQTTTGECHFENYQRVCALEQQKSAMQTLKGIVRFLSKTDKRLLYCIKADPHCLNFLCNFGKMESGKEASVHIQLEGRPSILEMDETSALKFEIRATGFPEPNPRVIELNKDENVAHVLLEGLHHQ
T1 sequence (P26010 20-723 limits assumed): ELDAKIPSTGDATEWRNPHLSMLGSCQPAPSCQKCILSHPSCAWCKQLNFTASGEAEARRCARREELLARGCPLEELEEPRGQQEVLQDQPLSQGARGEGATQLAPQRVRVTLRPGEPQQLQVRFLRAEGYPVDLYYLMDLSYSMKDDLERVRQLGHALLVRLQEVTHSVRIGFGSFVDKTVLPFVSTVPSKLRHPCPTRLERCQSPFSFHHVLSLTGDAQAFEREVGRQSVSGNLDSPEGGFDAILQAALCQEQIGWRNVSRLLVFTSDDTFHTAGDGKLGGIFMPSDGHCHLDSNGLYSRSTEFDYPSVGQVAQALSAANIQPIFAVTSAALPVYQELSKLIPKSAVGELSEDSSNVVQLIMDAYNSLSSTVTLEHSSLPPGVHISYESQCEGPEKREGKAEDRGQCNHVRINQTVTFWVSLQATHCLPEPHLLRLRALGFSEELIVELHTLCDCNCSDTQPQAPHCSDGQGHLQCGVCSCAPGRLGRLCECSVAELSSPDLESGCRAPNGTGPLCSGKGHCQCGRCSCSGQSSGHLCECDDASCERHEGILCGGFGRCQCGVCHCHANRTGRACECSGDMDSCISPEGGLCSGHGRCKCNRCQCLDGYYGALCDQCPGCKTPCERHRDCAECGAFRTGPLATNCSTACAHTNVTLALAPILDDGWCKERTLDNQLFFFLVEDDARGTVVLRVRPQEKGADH
Method: Integrin α4β7—MAdCAM-1 ELISA Competition Assay
The plate was incubated at 40C overnight. […] The plate was then incubated for 1 hour at room temperature. The plate was washed three times with wash buffer (50 mM Tris, 100 mM NaCl, 1 mM MnCl2, 0.05% Tween). To each well, 50 μl of compound diluted in assay buffer was added by transfer from a compound serial dilution plate. […] The plate was incubated at room temperature with shaking (300 rpm) for 2 hours to reach binding equilibrium. […] The plate was incubated at room temperature for 1 hour under agitation.

[2] = target: T2, recombinant integrin α4β1 (Homo sapiens, UniProt P05556+P13612); test: Integrin α4β1—VCAM-1 competition ELISA; format: binding; conditions: for ELISA Assay Ratio β1/β7: ratio of ELISA IC50s, α4β1 over α4β7; for IC50: read-out: ELISA α4β1 Assay IC50
T2 construct: purchased R&D Systems 5397-A3-050
In short: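 Compound dilutions added to coated plate and shaken at room temperature for 2 h (300 rpm) to binding equilibrium. Wash buffer: 50 mM Tris, 100 mM NaCl, 1 mM MnCl2, 0.05% Tween. Bound Fc-tagged ligand detected with anti-human IgG Fc-HRP, 1 h at room temperature.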

T2 sequence (P05556 21-728 limits assumed, one chain of several): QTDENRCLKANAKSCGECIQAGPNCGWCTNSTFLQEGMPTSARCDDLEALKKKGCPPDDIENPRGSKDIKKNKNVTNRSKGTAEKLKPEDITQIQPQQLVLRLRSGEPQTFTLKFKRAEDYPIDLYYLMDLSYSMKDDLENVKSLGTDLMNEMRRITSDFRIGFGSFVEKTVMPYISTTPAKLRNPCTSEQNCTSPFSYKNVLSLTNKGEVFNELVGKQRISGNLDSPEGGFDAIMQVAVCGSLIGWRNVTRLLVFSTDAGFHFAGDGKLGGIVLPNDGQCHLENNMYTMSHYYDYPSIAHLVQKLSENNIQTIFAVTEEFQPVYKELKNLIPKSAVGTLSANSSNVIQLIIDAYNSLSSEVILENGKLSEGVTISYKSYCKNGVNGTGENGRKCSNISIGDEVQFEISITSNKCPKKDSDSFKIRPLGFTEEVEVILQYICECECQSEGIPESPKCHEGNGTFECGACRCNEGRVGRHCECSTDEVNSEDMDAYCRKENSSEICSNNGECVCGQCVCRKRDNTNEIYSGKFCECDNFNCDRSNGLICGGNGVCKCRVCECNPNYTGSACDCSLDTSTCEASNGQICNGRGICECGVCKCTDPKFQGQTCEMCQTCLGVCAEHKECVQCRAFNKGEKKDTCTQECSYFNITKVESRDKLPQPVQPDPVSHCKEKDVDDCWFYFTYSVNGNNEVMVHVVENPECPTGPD

| Compound | IC50 [1] [nM] | ELISA Assay Ratio β1/β7 [2] | IC50 [2] [nM] |
| --- | --- | --- | --- |
| CC(C)C[C@@H]1NC(=O)C[C@H](CCCCN)N(C)C(=O)[C@H](CCCCNC(=O)CCOCCOCCOCCOCCOCCOCCOCCC(=O)NCCCC[C@@H]2NC(=O)[C@@H]3CCCN3[C@H](C(=O)NC(C)(C)C)[C@H](C)NC(=O)[C@H]([C@@H](C)O)NC(=O)[C@H](CC(=O)O)NC(=O)[C@H](CC(C)C)NC(=O)C[C@H](CCCCN)N(C)C2=O)NC(=O)[C@@H]2CCCN2[C@H](C(=O)NC(C)(C)C)[C@H](C)NC(=O)[C@H]([C@@H](C)O)NC(=O)[C@H](CC(=O)O)NC1=O [Compound 536] | 9.5 | 0.9 | 8.9 |
| CC(C)C[C@@H]1NC(=O)C[C@H](CCCCN)N(C)C(=O)[C@H](CCCCNC(=O)c2cc(C(=O)NCCCC[C@@H]3NC(=O)[C@@H]4CCCN4[C@H](C(=O)NC(C)(C)C)[C@H](C)NC(=O)[C@H]([C@@H](C)O)NC(=O)[C@H](CC(=O)O)NC(=O)[C@H](CC(C)C)NC(=O)C[C@H](CCCCN)N(C)C3=O)cc(C(=O)NCCCC[C@@H]3NC(=O)[C@@H]4CCCN4[C@H](C(=O)NC(C)(C)C)[C@H](C)NC(=O)[C@H]([C@@H](C)O)NC(=O)[C@H](CC(=O)O)NC(=O)[C@H](CC(C)C)NC(=O)C[C@H](CCCCN)N(C)C3=O)c2)NC(=O)[C@@H]2CCCN2[C@H](C(=O)NC(C)(C)C)[C@H](C)NC(=O)[C@H]([C@@H](C)O)NC(=O)[C@H](CC(=O)O)NC1=O [Compound 538] | 10 | 1.3 | 13 |
